Where two headings read alike, the source gives them in different places.
Tests used:
Experiment in all cases: biochemical
Type in all cases: binding
[1] = target: panel of 468 diverse kinases (Homo sapiens, UniProt O14578); conditions: CIT; 1000 nM; read-out: Percent Control
[2] = target: panel of 468 diverse kinases (Homo sapiens, UniProt O14965); conditions: AURKA; 1000 nM; read-out: Percent Control
[3] = target: panel of 468 diverse kinases (Homo sapiens, UniProt P00519, Q252H); conditions: 1000 nM, read-out: Percent Control
[4] = target: panel of 468 diverse kinases (Homo sapiens, UniProt P06239); conditions: LCK; 1000 nM; read-out: Percent Control
[5] = target: panel of 468 diverse kinases (Homo sapiens, UniProt P10721, L576P); conditions: KIT(L576P); 1000 nM; read-out: Percent Control
[6] = target: panel of 468 diverse kinases (Homo sapiens, UniProt P17612); conditions: PKAC-alpha; 1000 nM; read-out: Percent Control
[7] = target: panel of 468 diverse kinases (Homo sapiens, UniProt P17948); conditions: FLT1; 1000 nM; read-out: Percent Control
[8] = target: panel of 468 diverse kinases (Homo sapiens, UniProt P22455); conditions: FGFR4; 1000 nM; read-out: Percent Control
[9] = target: panel of 468 diverse kinases (Homo sapiens, UniProt P23443); conditions: S6K1; 1000 nM; read-out: Percent Control
[10] = target: panel of 468 diverse kinases (Homo sapiens, UniProt P29597); conditions: 1000 nM, read-out: Percent Control
[11] = target: panel of 468 diverse kinases (Homo sapiens, UniProt P41743); conditions: PRKCI; 1000 nM; read-out: Percent Control
[12] = target: panel of 468 diverse kinases (Homo sapiens, UniProt P49759); conditions: CLK1; 1000 nM; read-out: Percent Control
[13] = target: panel of 468 diverse kinases (Homo sapiens, UniProt P51813); conditions: BMX; 1000 nM; read-out: Percent Control
[14] = target: panel of 468 diverse kinases (Homo sapiens, UniProt P51817); conditions: PRKX; 1000 nM; read-out: Percent Control
[15] = target: panel of 468 diverse kinases (Homo sapiens, UniProt P78368); conditions: CSNK1G2; 1000 nM; read-out: Percent Control
[16] = target: panel of 468 diverse kinases (Homo sapiens, UniProt Q02156); conditions: PRKCE; 1000 nM; read-out: Percent Control
[17] = target: panel of 468 diverse kinases (Homo sapiens, UniProt Q02750); conditions: MEK1; 1000 nM; read-out: Percent Control
[18] = target: panel of 468 diverse kinases (Homo sapiens, UniProt Q08345); conditions: DDR1; 1000 nM; read-out: Percent Control
[19] = target: panel of 468 diverse kinases (Homo sapiens, UniProt Q12866); conditions: MERTK; 1000 nM; read-out: Percent Control
[20] = target: panel of 468 diverse kinases (Homo sapiens, UniProt Q15418); conditions: 1000 nM, read-out: Percent Control
[21] = target: panel of 468 diverse kinases (Homo sapiens, UniProt Q16584); conditions: MLK3; 1000 nM; read-out: Percent Control
[22] = target: panel of 468 diverse kinases (Homo sapiens, UniProt Q86YV6); conditions: MYLK4; 1000 nM; read-out: Percent Control
[23] = target: panel of 468 diverse kinases (Homo sapiens, UniProt Q8IY84); conditions: NIM1; 1000 nM; read-out: Percent Control
[24] = target: panel of 468 diverse kinases (Homo sapiens, UniProt Q8TDX7); conditions: NEK7; 1000 nM; read-out: Percent Control
[25] = target: panel of 468 diverse kinases (Homo sapiens, UniProt Q92630); conditions: DYRK2; 1000 nM; read-out: Percent Control
[26] = target: panel of 468 diverse kinases (Homo sapiens, UniProt Q96BR1); conditions: SGK3; 1000 nM; read-out: Percent Control
[27] = target: panel of 468 diverse kinases (Homo sapiens, UniProt Q96NX5); conditions: CAMK1G; 1000 nM; read-out: Percent Control
[28] = target: panel of 468 diverse kinases (Homo sapiens, UniProt Q9BVS4); conditions: RIOK2; 1000 nM; read-out: Percent Control
[29] = target: panel of 468 diverse kinases (Homo sapiens, UniProt Q9NYL2); conditions: ZAK; 1000 nM; read-out: Percent Control
[30] = target: panel of 468 diverse kinases (Homo sapiens, UniProt Q9UPE1); conditions: SRPK3; 1000 nM; read-out: Percent Control
[31] = target: panel of 468 diverse kinases (Homo sapiens, UniProt Q9Y2I7); conditions: PIKFYVE; 1000 nM; read-out: Percent Control
Chain of panel of 468 diverse kinases (Homo sapiens, UniProt Q9Y2I7) (Q9Y2I7 2-2098 limits assumed): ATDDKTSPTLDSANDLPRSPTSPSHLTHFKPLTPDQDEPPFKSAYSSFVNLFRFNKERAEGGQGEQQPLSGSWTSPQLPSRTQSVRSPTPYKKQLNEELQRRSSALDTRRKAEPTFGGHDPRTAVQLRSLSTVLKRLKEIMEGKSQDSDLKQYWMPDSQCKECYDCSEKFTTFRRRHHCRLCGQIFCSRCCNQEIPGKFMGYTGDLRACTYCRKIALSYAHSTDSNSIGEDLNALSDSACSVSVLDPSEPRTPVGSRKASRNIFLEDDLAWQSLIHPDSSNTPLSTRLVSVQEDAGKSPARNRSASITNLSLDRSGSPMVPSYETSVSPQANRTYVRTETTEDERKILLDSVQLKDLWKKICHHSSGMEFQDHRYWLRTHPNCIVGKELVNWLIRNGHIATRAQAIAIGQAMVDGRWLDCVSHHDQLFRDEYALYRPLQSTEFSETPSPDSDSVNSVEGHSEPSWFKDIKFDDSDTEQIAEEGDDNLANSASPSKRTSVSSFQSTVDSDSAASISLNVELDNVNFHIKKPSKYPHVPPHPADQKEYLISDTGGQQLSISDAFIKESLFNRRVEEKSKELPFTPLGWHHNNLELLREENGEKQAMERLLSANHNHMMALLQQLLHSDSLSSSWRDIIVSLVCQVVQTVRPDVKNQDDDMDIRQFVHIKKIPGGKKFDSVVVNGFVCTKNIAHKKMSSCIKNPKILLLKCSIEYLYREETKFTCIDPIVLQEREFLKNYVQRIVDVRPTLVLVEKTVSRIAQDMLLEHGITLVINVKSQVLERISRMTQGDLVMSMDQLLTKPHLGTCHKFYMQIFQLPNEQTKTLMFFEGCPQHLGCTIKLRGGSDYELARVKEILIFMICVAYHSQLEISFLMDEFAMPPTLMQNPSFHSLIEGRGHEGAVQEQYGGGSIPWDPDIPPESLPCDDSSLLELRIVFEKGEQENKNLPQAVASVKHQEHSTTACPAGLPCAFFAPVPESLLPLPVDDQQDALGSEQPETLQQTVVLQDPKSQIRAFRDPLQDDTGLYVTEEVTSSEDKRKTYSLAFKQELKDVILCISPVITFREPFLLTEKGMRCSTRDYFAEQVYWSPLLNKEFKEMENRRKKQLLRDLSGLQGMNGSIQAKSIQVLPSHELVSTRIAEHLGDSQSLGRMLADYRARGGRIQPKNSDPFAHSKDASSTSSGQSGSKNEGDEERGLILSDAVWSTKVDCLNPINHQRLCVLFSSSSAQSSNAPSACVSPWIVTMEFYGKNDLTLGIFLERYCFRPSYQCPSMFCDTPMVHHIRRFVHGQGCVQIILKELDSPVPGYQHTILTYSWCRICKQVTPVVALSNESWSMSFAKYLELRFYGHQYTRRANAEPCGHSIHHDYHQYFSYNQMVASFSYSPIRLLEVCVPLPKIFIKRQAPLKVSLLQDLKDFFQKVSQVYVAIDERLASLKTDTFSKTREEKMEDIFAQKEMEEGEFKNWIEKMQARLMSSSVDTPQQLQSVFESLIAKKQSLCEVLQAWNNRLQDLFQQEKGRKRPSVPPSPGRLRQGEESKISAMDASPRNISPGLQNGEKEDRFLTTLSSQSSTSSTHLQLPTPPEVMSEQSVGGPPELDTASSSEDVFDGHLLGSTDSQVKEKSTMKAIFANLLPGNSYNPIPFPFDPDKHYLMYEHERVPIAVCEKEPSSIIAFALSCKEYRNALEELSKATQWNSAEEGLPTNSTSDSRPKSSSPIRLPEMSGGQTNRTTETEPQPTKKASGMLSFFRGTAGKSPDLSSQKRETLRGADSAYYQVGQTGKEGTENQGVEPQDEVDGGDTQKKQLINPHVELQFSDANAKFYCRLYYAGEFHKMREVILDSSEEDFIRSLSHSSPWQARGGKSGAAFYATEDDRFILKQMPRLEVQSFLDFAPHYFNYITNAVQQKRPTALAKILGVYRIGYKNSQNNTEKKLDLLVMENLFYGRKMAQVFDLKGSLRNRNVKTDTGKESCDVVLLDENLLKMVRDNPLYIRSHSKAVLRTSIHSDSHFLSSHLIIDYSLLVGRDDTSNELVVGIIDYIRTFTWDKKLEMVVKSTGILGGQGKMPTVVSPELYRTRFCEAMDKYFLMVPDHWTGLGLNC

Chain of panel of 468 diverse kinases (Homo sapiens, UniProt P17948) (P17948 27-1338 limits assumed): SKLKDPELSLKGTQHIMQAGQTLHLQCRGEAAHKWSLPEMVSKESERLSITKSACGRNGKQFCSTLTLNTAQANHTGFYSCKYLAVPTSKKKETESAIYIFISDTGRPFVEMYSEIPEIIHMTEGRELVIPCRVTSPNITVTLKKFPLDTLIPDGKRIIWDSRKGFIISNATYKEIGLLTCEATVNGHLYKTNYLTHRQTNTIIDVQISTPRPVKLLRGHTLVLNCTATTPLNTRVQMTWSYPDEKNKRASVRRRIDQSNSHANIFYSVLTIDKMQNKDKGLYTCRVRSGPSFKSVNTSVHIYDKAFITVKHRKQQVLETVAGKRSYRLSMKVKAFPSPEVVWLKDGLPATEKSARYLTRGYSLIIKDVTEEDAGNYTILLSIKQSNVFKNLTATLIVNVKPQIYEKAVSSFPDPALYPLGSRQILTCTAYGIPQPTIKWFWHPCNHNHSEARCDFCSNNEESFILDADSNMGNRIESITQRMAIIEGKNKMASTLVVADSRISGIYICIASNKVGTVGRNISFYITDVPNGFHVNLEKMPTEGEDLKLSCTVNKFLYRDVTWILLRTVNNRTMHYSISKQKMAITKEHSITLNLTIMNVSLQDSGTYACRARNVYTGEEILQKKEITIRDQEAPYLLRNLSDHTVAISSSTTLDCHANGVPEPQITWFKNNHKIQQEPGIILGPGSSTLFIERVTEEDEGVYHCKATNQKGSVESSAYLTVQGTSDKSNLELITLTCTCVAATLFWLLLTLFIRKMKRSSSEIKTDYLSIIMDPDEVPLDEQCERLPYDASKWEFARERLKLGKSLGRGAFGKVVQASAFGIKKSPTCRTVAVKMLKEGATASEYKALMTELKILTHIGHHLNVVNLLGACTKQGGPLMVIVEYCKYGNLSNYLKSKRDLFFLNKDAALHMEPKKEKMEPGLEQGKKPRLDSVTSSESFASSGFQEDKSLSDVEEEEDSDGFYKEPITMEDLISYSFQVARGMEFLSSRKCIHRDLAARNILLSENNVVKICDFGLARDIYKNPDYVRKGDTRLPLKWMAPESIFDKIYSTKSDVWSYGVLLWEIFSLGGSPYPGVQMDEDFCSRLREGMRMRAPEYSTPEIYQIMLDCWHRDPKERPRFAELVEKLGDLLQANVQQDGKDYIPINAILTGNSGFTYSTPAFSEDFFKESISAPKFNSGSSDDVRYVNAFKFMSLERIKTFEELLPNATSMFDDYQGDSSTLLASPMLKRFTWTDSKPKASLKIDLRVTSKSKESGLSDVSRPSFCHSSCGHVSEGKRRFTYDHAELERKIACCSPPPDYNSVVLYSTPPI
Chain of panel of 468 diverse kinases (Homo sapiens, UniProt Q12866) (Q12866 21-999 limits assumed): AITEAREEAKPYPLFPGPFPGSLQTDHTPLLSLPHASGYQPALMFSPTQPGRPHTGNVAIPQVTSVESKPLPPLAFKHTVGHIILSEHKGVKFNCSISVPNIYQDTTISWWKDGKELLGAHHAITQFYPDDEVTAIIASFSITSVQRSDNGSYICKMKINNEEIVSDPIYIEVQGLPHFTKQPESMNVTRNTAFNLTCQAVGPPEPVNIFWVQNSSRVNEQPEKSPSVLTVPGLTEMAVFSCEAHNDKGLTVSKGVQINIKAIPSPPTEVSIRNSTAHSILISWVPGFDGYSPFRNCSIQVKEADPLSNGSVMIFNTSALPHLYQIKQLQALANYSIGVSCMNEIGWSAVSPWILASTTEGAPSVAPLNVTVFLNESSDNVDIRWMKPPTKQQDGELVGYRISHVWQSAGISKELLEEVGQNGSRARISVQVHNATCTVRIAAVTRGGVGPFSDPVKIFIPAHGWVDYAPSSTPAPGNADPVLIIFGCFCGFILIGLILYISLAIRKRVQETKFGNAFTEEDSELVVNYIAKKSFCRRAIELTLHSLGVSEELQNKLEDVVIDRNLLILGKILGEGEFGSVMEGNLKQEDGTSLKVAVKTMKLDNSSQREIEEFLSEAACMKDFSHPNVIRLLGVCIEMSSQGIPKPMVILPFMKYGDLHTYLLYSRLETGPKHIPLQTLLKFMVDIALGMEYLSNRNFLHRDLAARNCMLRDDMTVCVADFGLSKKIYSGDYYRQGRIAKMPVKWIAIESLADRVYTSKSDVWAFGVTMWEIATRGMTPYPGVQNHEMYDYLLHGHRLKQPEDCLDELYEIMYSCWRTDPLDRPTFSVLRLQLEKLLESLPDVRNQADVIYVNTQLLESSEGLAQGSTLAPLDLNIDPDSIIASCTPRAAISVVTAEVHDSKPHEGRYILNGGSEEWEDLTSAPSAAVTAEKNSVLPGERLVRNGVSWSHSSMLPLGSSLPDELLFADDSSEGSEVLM
Chain of panel of 468 diverse kinases (Homo sapiens, UniProt P06239) (P06239 2-509 limits assumed): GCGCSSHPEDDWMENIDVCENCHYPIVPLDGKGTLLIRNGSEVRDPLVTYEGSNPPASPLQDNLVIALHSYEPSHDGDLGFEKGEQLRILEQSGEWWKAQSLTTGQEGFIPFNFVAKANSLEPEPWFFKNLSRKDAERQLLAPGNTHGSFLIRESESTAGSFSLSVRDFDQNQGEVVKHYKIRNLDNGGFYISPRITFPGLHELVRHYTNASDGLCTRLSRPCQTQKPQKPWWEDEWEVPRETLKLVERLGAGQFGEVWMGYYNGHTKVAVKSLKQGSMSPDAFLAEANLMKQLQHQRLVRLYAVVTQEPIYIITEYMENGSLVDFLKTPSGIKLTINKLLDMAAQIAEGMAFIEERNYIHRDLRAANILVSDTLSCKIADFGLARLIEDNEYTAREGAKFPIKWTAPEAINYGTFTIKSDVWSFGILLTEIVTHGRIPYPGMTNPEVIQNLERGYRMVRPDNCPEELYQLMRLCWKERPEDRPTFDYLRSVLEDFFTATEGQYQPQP

COc1cc2nc(NC3CC3)nc(NC3CCN(C(C)C)CC3)c2cc1OC [Formula IV]
remaining activity at 1 µM [1]: 100% | remaining activity at 1 µM [2]: 56% | remaining activity at 1 µM ([3]; ABL1(Q252H)-nonphosphorylated): 84% | remaining activity at 1 µM ([3]; ABL1(Q252H)-phosphorylated): 69% | remaining activity at 1 µM [4]: 100% | remaining activity at 1 µM [5]: 100% | remaining activity at 1 µM [6]: 85% | remaining activity at 1 µM [7]: 95% | remaining activity at 1 µM [8]: 100% | remaining activity at 1 µM [9]: 50% | remaining activity at 1 µM ([10]; TYK2(JH1domain-catalytic)): 37% | remaining activity at 1 µM ([10]; TYK2(JH2domain-pseudokinase)): 79% | remaining activity at 1 µM [11]: 71% | remaining activity at 1 µM [12]: 96% | remaining activity at 1 µM [13]: 100% | remaining activity at 1 µM [14]: 100% | remaining activity at 1 µM [15]: 86% | remaining activity at 1 µM [16]: 100% | remaining activity at 1 µM [17]: 63% | remaining activity at 1 µM [18]: 88% | remaining activity at 1 µM [19]: 70% | remaining activity at 1 µM ([20]; RSK1(Kin.Dom.1-N-terminal)): 93% | remaining activity at 1 µM ([20]; RSK1(Kin.Dom.2-C-terminal)): 98% | remaining activity at 1 µM [21]: 93% | remaining activity at 1 µM [22]: 93% | remaining activity at 1 µM [23]: 72% | remaining activity at 1 µM [24]: 89% | remaining activity at 1 µM [25]: 84% | remaining activity at 1 µM [26]: 60% | remaining activity at 1 µM [27]: 99% | remaining activity at 1 µM [28]: 80% | remaining activity at 1 µM [29]: 100% | remaining activity at 1 µM [30]: 100% | remaining activity at 1 µM [31]: 96%

Reference: patent publication US11542240B2, “STK19 inhibitors for treatment of cancer” (TRUSTEES OF BOSTON UNIVERSITY, priority 2018, dated 2023)
